Reference: ChEMBL document CHEMBL2074355, “Biochemical mechanism of modulation of human P-glycoprotein (ABCB1) by curcumin I, II, and III purified from Turmeric powder” (Biochem Pharmacol, 2004)

Experiments:
Format in all cases: functional, cell-based
[1] = target: T1, ATP-dependent translocase ABCB1 (Homo sapiens, UniProt P08183); assay: TP_TRANSPORTER: increase in Calcein-AM intracellular accumulation in human KB-V1 cells
[2] = target: T1, ATP-dependent translocase ABCB1; assay: TP_TRANSPORTER: increase in bodipy-FL-vinblastine intracellular accumulation in human KB-V1 cells
[3] = target: T1, ATP-dependent translocase ABCB1; assay: TP_TRANSPORTER: increase in Rhodamine 123 intracellular accumulation in human KB-V1 cells

T1 sequence (P08183 whole entry): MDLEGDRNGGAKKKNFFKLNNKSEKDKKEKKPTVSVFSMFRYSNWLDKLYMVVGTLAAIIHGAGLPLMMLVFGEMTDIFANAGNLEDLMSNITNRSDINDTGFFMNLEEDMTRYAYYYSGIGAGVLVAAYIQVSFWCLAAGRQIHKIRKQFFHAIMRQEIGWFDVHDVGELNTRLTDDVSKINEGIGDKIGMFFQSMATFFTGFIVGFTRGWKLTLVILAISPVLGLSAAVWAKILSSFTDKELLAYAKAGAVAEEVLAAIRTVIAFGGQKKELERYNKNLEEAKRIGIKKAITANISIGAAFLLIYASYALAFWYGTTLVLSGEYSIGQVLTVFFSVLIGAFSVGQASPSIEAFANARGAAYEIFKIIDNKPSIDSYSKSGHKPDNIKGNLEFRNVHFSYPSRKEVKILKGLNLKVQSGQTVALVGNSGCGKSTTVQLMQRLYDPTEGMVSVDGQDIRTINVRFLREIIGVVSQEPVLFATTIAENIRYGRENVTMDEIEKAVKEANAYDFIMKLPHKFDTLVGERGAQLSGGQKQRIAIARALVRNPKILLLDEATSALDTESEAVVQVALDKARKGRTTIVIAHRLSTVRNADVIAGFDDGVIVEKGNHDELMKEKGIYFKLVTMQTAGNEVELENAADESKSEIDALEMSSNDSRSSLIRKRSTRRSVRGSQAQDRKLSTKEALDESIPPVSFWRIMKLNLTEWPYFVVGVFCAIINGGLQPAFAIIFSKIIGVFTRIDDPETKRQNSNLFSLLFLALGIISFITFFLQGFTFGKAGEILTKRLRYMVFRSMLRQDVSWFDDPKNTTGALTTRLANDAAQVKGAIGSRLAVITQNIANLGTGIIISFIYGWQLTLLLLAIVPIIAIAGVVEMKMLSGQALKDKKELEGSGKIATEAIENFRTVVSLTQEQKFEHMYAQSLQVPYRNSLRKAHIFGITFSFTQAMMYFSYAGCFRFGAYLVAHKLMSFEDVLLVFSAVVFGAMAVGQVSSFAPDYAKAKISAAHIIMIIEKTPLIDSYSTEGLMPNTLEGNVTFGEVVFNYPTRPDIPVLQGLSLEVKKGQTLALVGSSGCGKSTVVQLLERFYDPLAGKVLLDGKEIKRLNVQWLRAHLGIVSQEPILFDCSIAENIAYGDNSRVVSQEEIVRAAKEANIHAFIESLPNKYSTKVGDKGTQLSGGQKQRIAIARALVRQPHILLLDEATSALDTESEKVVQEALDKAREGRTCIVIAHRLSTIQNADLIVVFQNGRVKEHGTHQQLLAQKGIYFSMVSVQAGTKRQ

Activity [1]: inhibitor [+]
Activity [2]: inhibitor [+]
Activity [3]: inhibitor [+]
Structure (SMILES): COc1cc(/C=C/C(=O)CC(=O)/C=C/c2ccc(O)c(OC)c2)ccc1O [CURCUMIN]
